Laboratory results from US5521208A, “Compositions and methods for the treatment of the metabolically impaired and for improved compliance” (Alcon Laboratories, Inc., priority 1993, dated 1996).
Where two headings read alike, the source gives them in different places.

How the values were obtained:
[1] = system: sorbitol in three tissues (lens, sciatic nerve and retina); assay: In vivo inhibition of sorbitol in three tissues (lens, sciatic nerve and retina) of severely diabetic rats, dosed orally; settings: for ED50: Rattus norvegicus, 192 h, once a day for eight days
Method: To compare the in vivo efficacy of A(±) (from Example 1) and its enantiomers, A(+) and A(-), the ED50 values (the effective dose, in mg/kg/day, to achieve 50% inhibition) for inhibition of sorbitol in three tissues (lens, sciatic nerve and retina) of severely diabetic rats, dosed orally for eight days, once a day, were recorded.

[2] = target: T1, Rat L-Hexonate Dehydrogenase (L-HDH) (Rattus norvegicus, UniProt P51635); assay: In vitro inhibition of L-hexonate dehydrogenase (rat kidney supernatant fraction); format: biochemical; settings: ± SEM, n = 2-3, pH 7.5, room temperature
T1 construct: rat kidney supernatant fraction; from tissue; host or cells: rat kidney, supernatant fraction
T1 sequence (P51635 1-325): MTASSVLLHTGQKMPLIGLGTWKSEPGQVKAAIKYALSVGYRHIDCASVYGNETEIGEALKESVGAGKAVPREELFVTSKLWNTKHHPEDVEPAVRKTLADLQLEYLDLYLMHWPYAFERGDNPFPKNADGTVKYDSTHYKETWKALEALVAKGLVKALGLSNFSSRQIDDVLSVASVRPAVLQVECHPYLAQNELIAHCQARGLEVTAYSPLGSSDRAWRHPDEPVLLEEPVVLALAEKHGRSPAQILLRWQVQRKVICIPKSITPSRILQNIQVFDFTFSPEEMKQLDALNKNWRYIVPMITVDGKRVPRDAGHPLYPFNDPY
Text: (§1) The in vitro inhibiting activity of racemic 2,7-difluoro-4-methoxyspiro[9H-fluorene-9,4'-imidazolidine]-2',5'-dione, prepared in accordance with U.S. Pat. No. 4,864,028 (hereafter referred to as "A(±)") was compared to that of the R(+) and S(-) enantiomers thereof, prepared in accordance with U.S. Pat. No. 5,151,544 (referred to hereafter as "A(+)" and "A(-)", respectively), with respect to aldose reductase and L-hexonate dehydrogenase.
The test methods used for measuring in vitro inhibition activities of these compounds toward aldose reductase and L-hexonate dehydrogenase are known. The method utilized for measuring the inhibition of aldose reductase is described in B. W. Griffin and L. G. McNatt, "Characterization of the Reduction of 3-Acetylpyridine Adenine Dinucleotide Phosphate by Benzyl Alcohol Catalyzed by Aldose Reductase", Arch. Biochem, Biophys. 246:75-81 (1986). The method utilized for measuring the inhibition of L-hexonate dehydrogenase is described in M. T. DuPriest, B. W. Griffin, D. Kuzmich, and L. G. McNatt "Spiro[fluoreneisothiazolidin]one Dioxides: New Aldose Reductase and L-Hexonate Dehydrogenase Inhibitors", J. Med Chem. 34:3229-3234 (1991). Both methods are based on detection of the rate of increase of fluorescence of NADPH (reduced form of nicotinamide adenine dinucleotide phosphate) or an analog, formed as a product of the enzymatic reaction, i.e., oxidation of an appropriate alcohol substrate by the respective oxidized pyridine species. In the assay for aldose reductase, the reaction mixture contained 50 mmol/L potassium phosphate buffer (pH 7.5), 12 mmol/L benzyl alcohol, 12 μmol/L oxidized 3-acetylpyridine adenine dinucleotide phosphate, and rat lens supernatant fraction (50-100 μg total protein) in a total volume of 1.0 mL. […] The enzyme-dependent rate of formation of the reduced pyridine nucleotide was monitored with a fluorescence spectrophotometer set at excitation/emission wavelengths of 365/480 nm for the NADP+analog and 365/465 nm for NADP+; slit widths were routinely set at 10 nm. […]

[3] = target: T2, Rat Aldose Reductase (AR) (Rattus norvegicus, UniProt P07943); assay: In vitro inhibition of aldose reductase (rat lens supernatant fraction); format: biochemical; settings: for IC50: ± SEM, n = 3-4, rat lens supernatant, pH 7.5, room temperature; for difference in activity in vitro between A(+) and A(-): Rat AR and Rat L-HDH, conclusion in words
T2 construct: rat lens supernatant fraction; from tissue; host or cells: rat lens, supernatant fraction
Text: as §1
The test methods used for measuring in vitro inhibition activities of these compounds toward aldose reductase and L-hexonate dehydrogenase are known. The method utilized for measuring the inhibition of aldose reductase is described in B. W. Griffin and L. G. McNatt, "Characterization of the Reduction of 3-Acetylpyridine Adenine Dinucleotide Phosphate by Benzyl Alcohol Catalyzed by Aldose Reductase", Arch. Biochem, Biophys. 246:75-81 (1986). The method utilized for measuring the inhibition of L-hexonate dehydrogenase is described in M. T. DuPriest, B. W. Griffin, D. Kuzmich, and L. G. McNatt "Spiro[fluoreneisothiazolidin]one Dioxides: New Aldose Reductase and L-Hexonate Dehydrogenase Inhibitors", J. Med Chem. 34:3229-3234 (1991). Both methods are based on detection of the rate of increase of fluorescence of NADPH (reduced form of nicotinamide adenine dinucleotide phosphate) or an analog, formed as a product of the enzymatic reaction, i.e., oxidation of an appropriate alcohol substrate by the respective oxidized pyridine species. In the assay for aldose reductase, the reaction mixture contained 50 mmol/L potassium phosphate buffer (pH 7.5), 12 mmol/L benzyl alcohol, 12 μmol/L oxidized 3-acetylpyridine adenine dinucleotide phosphate, and rat lens supernatant fraction (50-100 μg total protein) in a total volume of 1.0 mL. The assay for L-hexonate dehydrogenase consisted of the following components: 50 mmol/L potassium phosphate buffer (pH 7.5), 20 mmol/L L-gulonate, 25 μmol/L NADP+, and rat kidney supernatant fraction (50-100 µg total protein) in a total volume of 1.0 mL. The enzyme-dependent rate of formation of the reduced pyridine nucleotide was monitored with a fluorescence spectrophotometer set at excitation/emission wavelengths of 365/480 nm for the NADP+analog and 365/465 nm for NADP+; slit widths were routinely set at 10 nm. Reactions were carried out at room temperature; blank rates with one component of the reaction omitted were typically less than 10% of the rate of the complete reaction.
The IC50 values (inhibitor concentration producing 50% inhibition of the reaction under the standard assay conditions described) were computed by linearregression analysis of the linear portion of the dose-response curve for each inhibitor.

[4] = Plasma pharmacokinetics in rats following a 2 mg/kg intravenous bolus injection; format: in vivo, male Sprague-Dawley rats; settings: 2 mg/kg i.v. bolus; for AUC(0-inf): linear trapezoidal summation with extrapolation to infinity; for clearance: read-out: CLT (total plasma clearance) (converted); for half-life / k el: 2 mg/kg; for concentration at 1 h / concentration at 4 h / concentration at 8 h / concentration at 24 h / concentration at 31 h / concentration at 48 h / concentration at 72 h / concentration at 96 h / concentration at 120 h / concentration at 144 h / concentration at 168 h / concentration at 216 h: Mean ± SD (N = 3); for concentration at 96 h / concentration at 120 h / concentration at 144 h / concentration at 168 h / concentration at 216 h: ND = Not Detected (lower limit of detection 2 ng/mL)
Method: The pharmacokinetic properties of A(±) of Example 1 were compared with those of each enantiomer, A(+) and A(-) of Example 1. The comparison was made in rats following an intravenous bolus injection.
The test articles were formulated in a 0.1N sodium carbonate solution to yield a 2 mg/mL solution. A total of 126 male Sprague-Dawley rats weighing 200-300 g were divided into three groups of 42 rats each. The animals were offered food and water ad libitum except fasting overnight prior to and for four hours after dosing. Rats in each group received a single 2 mg/kg intravenous dose of A(+) or A(-) or A(±) via the tail vein. At the following times postdose, three rats from each group were anesthetized by carbon dioxide inhalation and plasma samples were collected from each animal: 0, 1, 4, 8, 24, 31, 48, 72, 96, 120, 144, 168, 216, and 336 hours. Plasma concentrations of each drug were determined by gas chromatographic-electron capture (GC-EC) methods known to those skilled in the art, with a lower limit of detection of 2 ng/mL. See, e.g., Park, Y. H., et al., Xenobiotica 22:543-550 (1992). The values of the elimination rate constants, α,β and γ, were obtained by linear regression analysis of the log-linear portion of the plasma concentration-time curve. These constants correspond to the initial distribution, disposition and terminal elimination phases, respectively. The α and β values were obtained by the method of residuals. The corresponding half-lives (t1/2α, t1/2β and t1/2γ) were calculated by dividing 0.693 by each respective parameter. The area under the plasma concentration versus time curve from 0 to infinity (AUC..infin.) was calculated by linear trapezoidal summation with extrapolation to infinity. Total plasma clearance CLT was calculated as dose divided by AUC..infin.. The area under the first moment curve (AUMC) is the area under the curve observed for the product of time and concentration, versus time. Apparent volume of distribution at steady state (Vss) was calculated by the product of dose and AUMC, divided by (AUC..infin.)^2.

[5] = system: sorbitol in three tissues (lens, sciatic nerve and retina); assay: In vivo inhibition of sorbitol in three tissues (lens, sciatic nerve and retina) of severely diabetic rats, dosed orally; settings: Rattus norvegicus, 192 h, oral, once a day for eight days, footnote 1: ED60, read-out: ED50, Lens (footnote: for lens, ED60 value is given)
[6] = retina sorbitol, oral, A(-) value is (est.), read-out: ED50, Retina
[7] = sciatic nerve sorbitol, oral, read-out: ED50, S. Nerve
[8] = rat, plasma, iv, ND = Not Detected, read-out: t1/2γ (terminal elimination phase half-life) (converted)
[9] = rat, plasma, iv, ND = Not Detected, read-out: γ (elimination rate constant, terminal elimination phase) (converted)
[10] = rat, plasma, iv, read-out: t1/2α (initial distribution phase half-life) (converted)
[11] = rat, plasma, iv, read-out: t1/2β (disposition phase half-life) (converted)
[12] = rat, plasma, iv, read-out: α (elimination rate constant, initial distribution phase) (converted)
[13] = rat, plasma, iv, read-out: β (elimination rate constant, disposition phase) (converted)

| IC50 [2] [µM] | IC50 [3] [µM] | AUMC [4] [μg/hour^2/mL] | AUC(0-inf) ([4]; rat, plasma, iv) [ng·h/mL] | clearance ([4]; rat, plasma, iv) [mL/min/kg] | half-life [4, 10] [h] | half-life [4, 11] [h] | k el [4, 12] [s⁻¹] | k el [4, 13] [s⁻¹] | concentration at 1 h ([4]; rat, plasma, iv) [ng/mL] | concentration at 4 h ([4]; rat, plasma, iv) [ng/mL] | concentration at 8 h ([4]; rat, plasma, iv) [ng/mL] | concentration at 24 h ([4]; rat, plasma, iv) [ng/mL] | concentration at 31 h ([4]; rat, plasma, iv) [ng/mL] | concentration at 48 h ([4]; rat, plasma, iv) [ng/mL] | concentration at 72 h ([4]; rat, plasma, iv) [ng/mL] | Compound | ED50 [1, 6] [mg/kg] | ED50 [1, 7] [mg/kg] | elimination profile (in words) [4] | ED60 [5] [mg/kg/day] | also measured |
| --- | --- | --- | --- | --- | --- | --- | --- | --- | --- | --- | --- | --- | --- | --- | --- | --- | --- | --- | --- | --- | --- |
| 2.2 ± 0.9 | 5.7 ± 1.7 | 854 | 60400 | 0.552 | 5.8 | 8 | 3.28e-05 | 2.36e-05 | 5080 ± 441 | 3590 ± 441 | 2420 ± 5440 | 352 ± 34 | 194 ± 22 | 108 ± 27 | 3 ± 4 | COc1cc(F)cc2c1-c1ccc(F)cc1C21NC(=O)NC1=O (racemic) [A(±), 2,7-difluoro-4-methoxyspiro[9H-fluorene-9,4'-imidazolidine]-2',5'-dione] | 0.26 | 0.12 | kinetic profile similar to that of A(+) with the presence of a persistent elimination phase | 0.28 | activity relative to A(+) ([1]; sorbitol inhibition in vivo, diabetic rats): about 50%; Vd ([4]; rat, plasma, iv, read-out: Vss (apparent volume of distribution at steady state)): 0.47 L/kg; half-life [4, 8]: 40.7 h; k el [4, 9]: 4.72e-06 s⁻¹; concentration at 96 h ([4]; rat, plasma, iv): 17 ± 4 ng/mL; concentration at 120 h ([4]; rat, plasma, iv): 13 ± 3 ng/mL; concentration at 144 h ([4]; rat, plasma, iv): 11 ± 2 ng/mL; concentration at 168 h ([4]; rat, plasma, iv): 5 ± 2 ng/mL; concentration at 216 h ([4]; rat, plasma, iv): 2 ± 1 ng/mL |
| 3 ± 0.4 | 5.5 ± 0.2 | 965 | 54400 | 0.612 | 3.1 | 14.5 | 6.17e-05 | 1.33e-05 | 2970 ± 679 | 2360 ± 456 | 2360 ± 281 | 486 ± 170 | 382 ± 49 | 162 ± 32 | 67 ± 15 | COc1cc(F)cc2c1-c1ccc(F)cc1[C@@]21NC(=O)NC1=O [A(+), 2,7-difluoro-4-methoxyspiro[9H-fluorene-9,4'-imidazolidine]-2',5'-dione] | 0.15 | 0.08 | triexponential elimination profile with an initial distribution phase, a disposition phase due to metabolism, and a slow terminal elimination phase | 0.15 | difference in activity in vitro between A(+) and A(-) [3]: no significant difference in activity in vitro; half-life [4, 8]: 37.4 h; k el [4, 9]: 5e-06 s⁻¹; concentration at 96 h ([4]; rat, plasma, iv): 33 ± 11 ng/mL; concentration at 120 h ([4]; rat, plasma, iv): 11 ± 4 ng/mL; concentration at 144 h ([4]; rat, plasma, iv): 9 ± 1 ng/mL; concentration at 168 h ([4]; rat, plasma, iv): 5 ± 3 ng/mL; concentration at 216 h ([4]; rat, plasma, iv): 2 ± 1 ng/mL |
| 3 ± 0.4 | 5.9 ± 0.3 | 402 | 63000 | 0.528 | 4.3 | 8.5 | 4.53e-05 | 2.25e-05 | 7330 ± 220 | 3800 ± 975 | 2780 ± 449 | 140 ± 17 | 127 ± 36 | 23 ± 8 | 4 ± 3 | COc1cc(F)cc2c1-c1ccc(F)cc1[C@]21NC(=O)NC1=O [A(-), 2,7-difluoro-4-methoxyspiro[9H-fluorene-9,4'-imidazolidine]-2',5'-dione] | 2 to 3 | 1 | lacks a slow terminal elimination phase | 1.52 | factor by which less active than A(+) ([1]; in all tissues (lens, sciatic nerve, retina)): ≥ 10; maximum inhibition achieved at the highest dose ([1]; lens sorbitol, highest dose (1.5 mg/kg/day), oral, eight days): 40%; difference in activity in vitro between A(+) and A(-) [3]: no significant difference in activity in vitro; volume of distribution (in words) ([4]; compared with A(+)): significantly lower volume of distribution |
